Source: BindingDB's records for doi:10.1021/jm049227l (Molecular Discovery, 2005)

target: Albumin (Homo sapiens, UniProt P02768); assay: Binding affinity towards human serum albumin
Sequence (P02768 whole entry): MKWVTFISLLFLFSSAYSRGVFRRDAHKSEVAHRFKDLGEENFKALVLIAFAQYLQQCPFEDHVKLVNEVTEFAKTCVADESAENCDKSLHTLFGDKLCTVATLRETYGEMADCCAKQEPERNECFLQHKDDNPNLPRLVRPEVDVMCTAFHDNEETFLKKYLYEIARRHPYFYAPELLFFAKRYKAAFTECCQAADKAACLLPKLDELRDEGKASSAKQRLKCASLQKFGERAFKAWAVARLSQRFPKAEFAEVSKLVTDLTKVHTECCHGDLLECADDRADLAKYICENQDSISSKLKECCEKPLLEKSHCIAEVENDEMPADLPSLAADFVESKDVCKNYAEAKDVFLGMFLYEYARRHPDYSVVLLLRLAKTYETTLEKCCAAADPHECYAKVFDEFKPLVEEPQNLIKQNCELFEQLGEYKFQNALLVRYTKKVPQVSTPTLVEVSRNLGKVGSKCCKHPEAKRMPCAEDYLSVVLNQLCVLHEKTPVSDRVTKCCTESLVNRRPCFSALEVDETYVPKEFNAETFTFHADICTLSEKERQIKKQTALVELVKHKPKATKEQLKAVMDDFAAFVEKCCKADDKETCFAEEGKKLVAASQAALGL

Question: For COc1ccc2c(c1)CN(c1ccc(C(C)C(=O)O)cc1)C2=O (stereo not given), which Association constant (Ka) is on record?
Answer: The Association constant (Ka) was 81200 M⁻¹.

Question: For CC(C)Cc1ccc([C@@H](C)C(=O)NCCCN(C)C)cc1, which Association constant (Ka) is on record?
Answer: The Association constant (Ka) was 5010 M⁻¹.

Question: With CC(C)c1ccc(O)c(C(=O)O)c1 as the compound, how does the Association constant (Ka) read?
Answer: Its Association constant (Ka) is 26300 M⁻¹.

Question: With Cc1cc(CC(=O)O)n(C)c1C(=O)c1ccc(Cl)cc1 as the compound, how does the Association constant (Ka) read?
Answer: Its Association constant (Ka) is 109000 M⁻¹.

Question: Which Association constant (Ka) does the source give for CC(C)Cc1ccc([C@@H](C)C(=O)NCCOCCO)cc1 here?
Answer: The Association constant (Ka) was 8120 M⁻¹.

Question: For NCc1ccc(-c2ccc(C(=O)O)cc2)cc1, which Association constant (Ka) is on record?
Answer: Its Association constant (Ka) is 1000 M⁻¹.

Question: Which Association constant (Ka) does the source give for O=C(O)c1cccc(-c2cc(C(F)(F)F)cc(C(F)(F)F)c2)c1 here?
Answer: The Association constant (Ka) was 3090 M⁻¹.

Question: How did the Association constant (Ka) turn out when CC(C)NCC(O)c1ccc(NS(C)(=O)=O)cc1 (racemic) [Sotalol,(-)] was run?
Answer: Its Association constant (Ka) is 354 M⁻¹.

Question: With NS(=O)(=O)c1cc2c(cc1Cl)NCNS2(=O)=O [JFD00715] as the compound, how does the Association constant (Ka) read?
Answer: Its Association constant (Ka) is 2290 M⁻¹.

Question: With NCc1cc(-c2ccc(C(=O)O)cc2)ccc1F as the compound, how does the Association constant (Ka) read?
Answer: The Association constant (Ka) was 1000 M⁻¹.

Question: How did the Association constant (Ka) turn out when CCCNC(=O)NS(=O)(=O)c1ccc(Cl)cc1 [1-(4-chlorophenylsulfonyl)-3-propylurea] was run?
Answer: The Association constant (Ka) was 39800 M⁻¹.

Question: Which Association constant (Ka) does the source give for O=C(O)c1cccc(-c2cc(Cl)cc(Cl)c2)c1 here?
Answer: The Association constant (Ka) was 5750 M⁻¹.

Question: For O=C(O)c1ccc(-c2ccccc2)cc1 [Biphenyl-4-carboxylic acid], which Association constant (Ka) is on record?
Answer: The Association constant (Ka) was 199000 M⁻¹.

Question: With C[C@@H](C(=O)NS(C)(=O)=O)c1ccc(OS(=O)(=O)C(F)(F)F)cc1 [DF-2156A] as the compound, how does the Association constant (Ka) read?
Answer: The Association constant (Ka) was 831000 M⁻¹.

Question: CC1=C(CC(=O)O)c2cc(F)ccc2/C1=C\c1ccc([S+](C)[O-])cc1 (stereo not given) [Sulindac] was tested. Which Association constant (Ka) did it give?
Answer: The Association constant (Ka) was 26300 M⁻¹.

Question: For O=C(O)c1cc(Cl)ccc1O [5-Chloro-2-hydroxy-benzoic acid], which Association constant (Ka) is on record?
Answer: The Association constant (Ka) was 21300 M⁻¹.

Question: How did the Association constant (Ka) turn out when Oc1ccc(-c2ccccc2)cc1 [4-Hydroxybiphenyl] was run?
Answer: The Association constant (Ka) was 9540 M⁻¹.

Question: Cc1ccc(C(=O)c2ccc(CC(=O)O)n2C)cc1 [2-(1-methyl-5-(4-methylbenzoyl)-1H-pyrrol-2-yl)acetic acid] was tested. Which Association constant (Ka) did it give?
Answer: The Association constant (Ka) was 416000 M⁻¹.

Question: How did the Association constant (Ka) turn out when CC(C)Cc1ccc([C@@H](C)C(=O)NS(C)(=O)=O)cc1 [(R)-2-(4-isobutylphenyl)-N-(methylsulfonyl)propanamide] was run?
Answer: The Association constant (Ka) was 1.65e+06 M⁻¹.

Question: With O=C(c1ccccc1)c1ccc2n1CCC2C(=O)O (stereo not given) [Toradol] as the compound, how does the Association constant (Ka) read?
Answer: The Association constant (Ka) was 208000 M⁻¹.

Question: Which Association constant (Ka) does the source give for O=C(O)c1cccc(-c2ccccc2)c1 here?
Answer: The Association constant (Ka) was 251000 M⁻¹.

Question: With O=C(O)c1cccc(-c2ccc(Cl)cc2Cl)c1 as the compound, how does the Association constant (Ka) read?
Answer: Its Association constant (Ka) is 23900 M⁻¹.

Question: For Cc1ccc(S(=O)(=O)NC(=O)NN2CCCCCC2)cc1 [CHEBI:9613], which Association constant (Ka) is on record?
Answer: The Association constant (Ka) was 53700 M⁻¹.

Question: Which Association constant (Ka) does the source give for CC(C)Cc1ccc([C@@H](C)C(=O)N[C@H](C)C(=O)O)cc1 here?
Answer: The Association constant (Ka) was 39800 M⁻¹.

Question: With CS(=O)(=O)Nc1ccc([N+](=O)[O-])cc1Oc1ccccc1 as the compound, how does the Ki read?
Answer: The Ki was 15100 M⁻¹.

Question: How did the Association constant (Ka) turn out when Nc1cccc(-c2cccc(C(=O)O)c2)c1 was run?
Answer: Its Association constant (Ka) is 7760 M⁻¹.

Question: With CC(Cc1ccc([C@@H](C)C(=O)NS(C)(=O)=O)cc1)C(=O)O (stereo not given in full) as the compound, how does the Association constant (Ka) read?
Answer: The Association constant (Ka) was 3890 M⁻¹.

Question: With C[C@@H](C(=O)NCCCN1CCCC1)c1ccc(OS(=O)(=O)C(F)(F)F)cc1 as the compound, how does the Association constant (Ka) read?
Answer: The Association constant (Ka) was 2690 M⁻¹.

Question: With C[C@@H](C(=O)NCCN1CCCC1)c1ccc(OS(=O)(=O)C(F)(F)F)cc1 as the compound, how does the Association constant (Ka) read?
Answer: The Association constant (Ka) was 3890 M⁻¹.

Question: How did the Association constant (Ka) turn out when Nc1cccc(-c2ccc(O)c(C(=O)O)c2)c1 was run?
Answer: The Association constant (Ka) was 2750 M⁻¹.

Question: Which Association constant (Ka) does the source give for CC(C(=O)O)c1ccc(-c2ccccc2)c(F)c1 (racemic) [2-(2-fluoro-[1,1'-biphenyl-4-yl])propanoic acid] here?
Answer: Its Association constant (Ka) is 331000 M⁻¹.

Question: How did the Association constant (Ka) turn out when O=C(O)c1cc(-c2ccccc2)ccc1O [2-Hydroxy-5-phenylbenzoic acid] was run?
Answer: Its Association constant (Ka) is 100000 M⁻¹.

Question: For CC(C)(C)c1ccc(O)c(C(=O)O)c1, which Association constant (Ka) is on record?
Answer: Its Association constant (Ka) is 20400 M⁻¹.

Question: Nc1ccc(-c2cccc(C(=O)O)c2)cc1 was tested. Which Association constant (Ka) did it give?
Answer: Its Association constant (Ka) is 6160 M⁻¹.

Question: C[C@@H](C(N)=O)c1ccc(OS(=O)(=O)C(F)(F)F)cc1 was tested. Which Association constant (Ka) did it give?
Answer: Its Association constant (Ka) is 19000 M⁻¹.
